Test results: patent publication EP1757607A1, “N5-substituted benzo¬2,3|azepino¬4,5-b|indol-6-ones for treating tropical diseases” (Molisa GmbH, priority 2005, dated 2007)

How the values were obtained:
[1] = molecular target: T1, Trypanothione Synthetase TS (Crithidia fasciculata, UniProt O60993); assay: Inhibition of Trypanothione Synthetase (Table 1); type: biochemical; settings: compound concentration not stated for Table 1
T1 sequence (O60993 1-652): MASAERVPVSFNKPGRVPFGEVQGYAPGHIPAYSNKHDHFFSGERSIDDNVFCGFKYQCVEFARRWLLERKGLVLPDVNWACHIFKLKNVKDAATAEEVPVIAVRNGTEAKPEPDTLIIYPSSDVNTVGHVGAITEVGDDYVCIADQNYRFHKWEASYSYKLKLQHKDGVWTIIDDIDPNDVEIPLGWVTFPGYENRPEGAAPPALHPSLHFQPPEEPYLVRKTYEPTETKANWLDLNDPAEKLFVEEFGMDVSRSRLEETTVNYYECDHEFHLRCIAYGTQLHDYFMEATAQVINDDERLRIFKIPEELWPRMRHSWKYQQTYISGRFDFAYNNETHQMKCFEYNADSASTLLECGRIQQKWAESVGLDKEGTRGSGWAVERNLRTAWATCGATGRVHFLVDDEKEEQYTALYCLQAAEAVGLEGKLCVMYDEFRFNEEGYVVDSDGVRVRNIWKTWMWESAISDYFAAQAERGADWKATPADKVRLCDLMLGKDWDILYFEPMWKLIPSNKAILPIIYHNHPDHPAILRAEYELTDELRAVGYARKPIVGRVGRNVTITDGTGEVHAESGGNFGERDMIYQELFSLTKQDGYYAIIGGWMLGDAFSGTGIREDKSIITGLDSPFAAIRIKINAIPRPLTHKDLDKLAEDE

[2] = molecular target: T2, TryS (Crithidia fasciculata, UniProt O60993); assay: Screening of potential inhibitors against TryS (malachite green, A650); type: biochemical; settings: 10 µM compound; 90.75 nM TryS, 0.675 mM GSH, 6.75 mM spermidine, 45 µM ATP, room temperature, 60 min; triplicates; read-out: inhibitory effect (%)
T2 sequence (O60993 1-652): T1 sequence (O60993 1-652)
Experimental: The compounds were screened against TryS at 10 µM compound concentration. The inhibitory effect of each compound on TryS was measured in triplicates. Obvious outliers from the triplicates were removed. If the standard deviation of the two remaining inhibition values exceeded 25 % the measurement was repeated.
The screen was performed under the following conditions: 90.75 nM TryS was incubated with 0.675 mM GSH, 6.75 mM spermidine, 45 µM ATP, and 10 µM compound in a total volume of 80 µl 100 mM HEPES pH 7.5, 10 mM MgSO4, 0.1 mM EDTA, 5 mM DTT at room temperature for 60 min. Reaction was stopped by addition of 10 µl malachitgreen reagent. A650 was measured after 20 min. No compound was present in the positive controls (C+). Neither GSH nor spermidine was present in the negative controls (C-).

Row | Molecule | Inhibition of TS % [1] [%] | inhibition at 10 µM [2] [%]
1 | CNCCNC(=O)CN1C(=O)Cc2c([nH]c3ccc(C#N)cc23)-c2ccccc21 [Compound 22, 2-(9-Cyano-6-oxo-6,7-dihydro-5H-benzo[2,3]azepino[4,5-b]indol-5-yl)-N-(2-methylamino-1-yl-ethyl)-acetamide] | 51.7 | –
2 | NCCCNC(=O)CN1C(=O)Cc2c([nH]c3ccc(Br)cc23)-c2ccccc21 [Compound 18, N-(3-Amino-1-yl-propyl)-2-(9-bromo-6-oxo-6,7-dihydro-5H-benzo[2,3]azepino[4,5-b]indol-5-yl)-acetamide] | 37.8 | 85.1
3 | NCCNC(=O)CN1C(=O)Cc2c([nH]c3ccc(Br)cc23)-c2ccccc21 [Compound 17, N-(2-Amino-1-yl-ethyl)-2-(9-bromo-6-oxo-6,7-dihydro-5H-benzo[2,3]azepino[4,5-b]indol-5-yl)-acetamide] | 78.6 | 96.8
4 | NCCCCNCCCNC(=O)CN1C(=O)Cc2c([nH]c3ccc(Br)cc23)-c2ccccc21 [Compound 21, N-(3-(4-Amino-1-yl-butylamino)-1-yl-propyl)-2-(9-bromo-6-oxo-6,7-dihydro-5H-benzo[2,3]azepino[4,5-b]indol-5-yl)-acetamide] | 22.5 | 47.6
5 | NCCCCNC(=O)CN1C(=O)Cc2c([nH]c3ccc(Br)cc23)-c2ccccc21 [Compound 19, N-(4-Amino-1-yl-butyl)-2-(9-bromo-6-oxo-6,7-dihydro-5H-benzo[2,3]azepino[4,5-b]indol-5-yl)-acetamide] | 16.2 | 54.3
6 | O=C(CN1C(=O)Cc2c([nH]c3ccc(Br)cc23)-c2ccccc21)N1CCNCC1 [Compound 25, N-[2-(9-Bromo-6-oxo-6,7-dihydro-5H-benzo[2,3]azepino[4,5-b]indol-5-yl)-acetyl]-piperazine] | 76.5 | –
7 | 2-(9-Bromo-6-oxo-6,7-dihydro-5H-benzo[2,3]azepino[4,5-b]indol-5-yl)-acetic acid hydrazide [Compound 26] | 0 | –
8 | CNCCNC(=O)CN1C(=O)Cc2c([nH]c3ccc(Br)cc23)-c2ccccc21 [Compound 13, 2-(9-Bromo-6-oxo-6,7-dihydro-5H-benzo[2,3]azepino[4,5-b]indol-5-yl)-N-(2-methylamino-1-yl-ethyl)-acetamide] | 92.4 | –
9 | CNCCNC(=O)CN1C(=O)Cc2c([nH]c3ccc(C)cc23)-c2ccccc21 [Compound 24, 2-(9-Methyl-6-oxo-6,7-dihydro-5H-benzo[2,3]azepino[4,5-b]indol-5-yl)-N-(2-methylamino-1-yl-ethyl)-acetamide] | 20.5 | –
10 | NCCCNCCCCNC(=O)CN1C(=O)Cc2c([nH]c3ccc(Br)cc23)-c2ccccc21 [Compound 20, N-(4-(3-Amino-1-yl-propylamino)-1-yl-butyl)-2-(9-bromo-6-oxo-6,7-dihydro-5H-benzo[2,3]azepino[4,5-b]indol-5-yl)-acetamide] | 24.6 | 47.6
11 | CNCCNC(=O)CN1C(=O)Cc2c([nH]c3ccccc23)-c2ccccc21 [Compound 23, N-(2-Methylamino-1-yl-ethyl)-2-(6-oxo-6,7-dihydro-5H-benzo[2,3]azepino[4,5-b]indol-5-yl)-acetamide] | 0 | –
